What was measured:
[1] = target: T1, AQ STING (G230A-R293Q) (Homo sapiens, UniProt Q86WV6, G230A/H232R/R293Q); assay: Differential Scanning Fluorimetry with AQ STING; format: binding; conditions: thermal shift vs STING apoprotein; 150 μM CDN; 0.1 mg/ml truncated human AQ STING; SYPRO Orange; read-out: DSF ΔTm (° C.) AQ STING
T1 construct: truncated human WT STING or AQ STING (amino acid residues 140-343); 8xHis (N, cleaved yes); SUMO (N, cleaved yes); made in house; host or cells: E. coli Rosetta-gami B (DE3)
T1 sequence (Q86WV6 140-343 G230A/H232R/R293Q): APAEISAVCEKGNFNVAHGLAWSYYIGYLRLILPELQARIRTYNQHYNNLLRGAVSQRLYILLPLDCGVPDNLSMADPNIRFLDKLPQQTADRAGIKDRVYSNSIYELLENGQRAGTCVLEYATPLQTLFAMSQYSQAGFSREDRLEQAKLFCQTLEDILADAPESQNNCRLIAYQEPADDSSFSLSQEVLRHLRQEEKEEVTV
Protocol: (§1) WT STING and AQ STING Proteins
(§2) Purified PCR products were cleaved with restriction enzymes BamHI (cat. #R0136S, NEB, Ipswich, USA) and NotI (cat. #R0189S, NEB, Ipswich, USA) and cloned into the pSUMO vector linearized with the identical enzymes.
(§3) The resin was poured into a chromatography column, washed with 50 ml buffer A (50 mmol·l^−1 TrisCl (pH 8.0), 800 mmol·l^−1 NaCl, 3 mmol·l^−1 β-mercaptol; 10% glycerol; 20 mmol·l^−1 imidazole) and 8-His-SUMO tagged STING proteins were eluted with 15 ml buffer A containing 300 mmol·l^−1 imidazole. […] Proteins were concentrated with Amicon® Ultra-15 10 K device (cat. #UFC901008, Merck Millipore, Billerica, USA) and flash frozen in liquid N2.
(§4) Differential Scanning Fluorimetry with WT STING and AQ STING
(§5) 20 μL solutions of the reaction mixtures were pipetted in triplicates into 96 well optical reaction plates and thermal denaturation of samples were performed on real time PCR cycler (LightCycler® 480 Instrument II—Roche, Basel, Switzerland). The first derivative of the thermal denaturation curves was performed to calculate denaturing temperatures of STING—CDN complexes and STING apoproteins. The thermal shift for each CDN was calculated by subtracting the average denaturing temperature of STING apoprotein from the average denaturing temperature of STING CDN complex.

[2] = target: T2, WT STING (Homo sapiens, UniProt Q86WV6, H232R); assay: Digitonin assay using 293T wtSTING-FL reporter cells; format: cell-based; conditions: 293T wtSTING-FL cells; 30 minutes in Digitonin buffer, then 5 hours; ISRE firefly luciferase reporter; 8-point dose-response curve; read-out: Digitonin assay EC50 (μmol · l^−1) WT STING
From the text: ISRE Reporter Plasmid (pGL64.27-4xISRE)
Two complementary oligonucleotides of the sequence […] […] […] […] […] The oligonucleotides were mixed in equal molar amounts, hybridized, and cleaved by restriction endonucleases HindIII (cat. #. R0104S, NEB, Ipswich, USA) and BglII (cat. #R0144S, NEB, Ipswich, USA). Ultimately, they were ligated into plasmid pGL4.27 (cat. #E6651, Promega, Madison, USA) linearized with the same enzymes. As result the sequence with four ISRE sites was placed upstream of the minimum promoter of firefly luciferase reporter gene.
After 5 minutes incubation at room temperature (RT), 250 μL of the mixture was added dropwise to the cells in one well. Cells were incubated 36 hours at 37° C. with 5% CO2, and then detached with 0.05% Trypsin and 0.22 g/L EDTA (both cat. #L0941, Biowest, Riverside, USA).
Transfected cells were seeded onto poly-D-lysine coated six well plates at density 50,000 cells per 1 cm^2 in DMEM medium with high glucose containing 10% heat inactivated FBS, 30 g/mL blasticidin (cat. #ant-bl-05, InvivoGen, San Diego, USA), 0.06 mg/ml Penicillin G and 0.1 mg/ml Streptomycin Sulfate (both cat. #. L0018, Biowest, Riverside, USA). The medium was replenished every 3-4 days until visible colonies of cells resistant to blasticidin were formed.
Blasticidin resistant cells stably expressing WT STING were further transfected with […] plasmid following the same procedure as described above. […] Homogeneous culture of stably double transfected cells was prepared by limiting dilution of cells in 96 well plates and wells with cells were selected that originated from a single cell.
The medium was removed next day and three fold serial dilutions of compounds in Digitonin buffer containing 50 mmol·l^−1 HEPES (cat. #H3375, Sigma Aldrich, Czech Republic) pH 7.0, 100 mmol·l^−1 KCl, 3 mmol·l^−1 MgCl2, 0.1 mmol·l^−1 DTT (cat. #D0632, Sigma Aldrich, Czech Republic), 85 mmol·l^−1 Sucrose (cat. #S7903, Sigma Aldrich, Czech Republic), 0.2% BSA (cat. #A2153, Sigma Aldrich, Czech Republic), 1 mmol·l^−1 ATP (cat. #A1852, Sigma Aldrich, Czech Republic), 0.1 mmol·l^−1 GTP (cat. #G8877, Sigma Aldrich, Czech Republic), and 10 μg/mL Digitonin A (cat. #D141, Sigma Aldrich, Czech Republic) were added to the cells. The buffer was removed after 30 minutes incubation at 37° C. with 5% CO2, the cells were washed once with 100 μl of cultivation medium, and 100 μl of medium was added to each well. The plates with cells were incubated for 5 hours at 37° C. with 5% CO2, 50 μl of the medium was removed and 30 μl of ONE-Glo™ Luciferase Assay System reagent (cat. #E6120, Promega, Madison, USA) was added to each well. Luminescence was read on Synergy H1 (Biotek, Winooski, USA).
Target sequence in this assay (Q86WV6 whole entry H232R): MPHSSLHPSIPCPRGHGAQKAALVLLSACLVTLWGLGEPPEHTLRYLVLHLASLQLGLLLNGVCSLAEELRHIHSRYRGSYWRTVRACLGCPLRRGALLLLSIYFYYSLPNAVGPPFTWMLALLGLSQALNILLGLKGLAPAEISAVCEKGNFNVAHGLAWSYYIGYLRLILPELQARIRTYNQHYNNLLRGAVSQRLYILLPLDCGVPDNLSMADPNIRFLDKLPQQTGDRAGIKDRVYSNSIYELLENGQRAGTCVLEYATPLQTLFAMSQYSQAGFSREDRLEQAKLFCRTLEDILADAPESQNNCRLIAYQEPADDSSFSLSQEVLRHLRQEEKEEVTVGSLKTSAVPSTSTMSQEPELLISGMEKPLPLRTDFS

[3] = target: T2, WT STING; assay: Differential Scanning Fluorimetry with WT STING; format: binding; set-up: truncated human WT STING or AQ STING (amino acid residues 140-343); 8xHis (N, cleaved yes); SUMO (N, cleaved yes); made in house; host or cells: E. coli Rosetta-gami B (DE3); conditions: thermal shift vs STING apoprotein; 150 μM CDN; 0.1 mg/ml truncated human WT STING; SYPRO Orange; read-out: DSF ΔTm (° C.) WT STING
Protocol: as §1, §2, §3, §4, §5
Target sequence in this assay (Q86WV6 140-343 H232R): as the sequence (Q86WV6 140-343 G230A/H232R/R293Q) above, with A91G, Q154R counted along it

| Compound | ΔTm at 150 µM [1] [°C] | EC50 [2] [µM] | ΔTm at 150 µM [3] [°C] |
| --- | --- | --- | --- |
| Nc1ncnc2c1ncn2[C@@H]1O[C@@H]2OCP(=O)(O)O[C@@H]3[C@H](O)[C@@H](COP(=O)(O)O[C@H]2[C@H]1O)O[C@H]3n1cnc2c(=O)[nH]cnc21 [Compound 37, (1R,6R,8R,9R,10S,15R,17R,18R)-8-(6-amino-9H-purin-9-yl)-3,9,12,18-tetrahydroxy-17-(6-oxo-6,9-dihydro-1H-purin-9-yl)-2,5,7,11,13,16-hexaoxa-3λ^5,12λ^5 diphosphatricyclo[13.2.1.0^6,10]octadecane-3,12-dione] | 16.5 | 0.05 | 8.5 |
| Nc1nc2c(ncn2[C@@H]2O[C@@H]3COP(=O)(O)O[C@@H]4[C@@H](OCP(=O)(O)O[C@@H]2C3)O[C@@H](n2cnc3c(N)ncnc32)[C@@H]4O)c(=O)[nH]1 [Compound 38, (1R,6R,8R,9R,10S,15S,17R)-17-(2-amino-6-oxo-6,9-dihydro-1H-purin-9-yl)-8-(6-amino-9H-purin-9-yl)-3,9,12-trihydroxy-2,5,7,11,13,16-hexaoxa-3λ^5,12λ^5-diphosphatricyclo[13.2.1.0^6,10]octadecane-3,12-dione] | 16.2 | 0.05 | 8.2 |
| Nc1nc2c(ncn2[C@@H]2O[C@@H]3COP(=O)(S)O[C@@H]4[C@@H](OCP(=O)(O)O[C@@H]2[C@@H]3O)O[C@@H](n2cnc3c(N)ncnc32)[C@@H]4O)c(=O)[nH]1 (stereo partly drawn) [Compound 39, (1R,6R,8R,9R,10S,15R,17R,18R)-17-(2-amino-6-oxo-6,9-dihydro-1H-purin-9-yl)-8-(6-amino-9H-purin-9-yl)-3,9,18-trihydroxy-12-sulfanyl-2,5,7,11,13,16-hexaoxa-3λ^5,12λ^5-diphosphatricyclo[13.2.1.0^6,10]octadecane-3,12-dione] | 17.2 | 0.08 | 11 |
| Nc1nc2c(ncn2[C@@H]2O[C@@H]3COP(=O)(O)O[C@@H]4[C@@H](OCP(=O)(O)O[C@@H]2[C@@H]3O)O[C@@H](n2cnc3c(N)ncnc32)[C@@H]4O)c(=O)[nH]1 [Compound 40, (1R,6R,8R,9R,10S,15R,17R,18R)-17-(2-amino-6-oxo-6,9-dihydro-1H-purin-9-yl)-8-(6-amino-9H-purin-9-yl)-3,9,12,18-tetrahydroxy-2,5,7,11,13,16-hexaoxa-3λ^5,12λ^5-diphosphatricyclo[13.2.1.0^6,10]octadecane-3,12-dione] | 18.7 | 0.02 | 10.8 |
| Nc1nc2c(ccn2[C@@H]2O[C@@H]3COP(=O)(O)O[C@@H]4[C@@H](OCP(=O)(O)O[C@@H]2[C@@H]3O)O[C@@H](n2cnc3c(N)ncnc32)[C@@H]4O)c(=O)[nH]1 [Compound 41, (1R,6R,8R,9R,10S,15R,17R,18R)-17-{2-amino-4-oxo-3H,4H,7H-pyrrolo[2,3-d]pyrimidin-7-yl}-8-(6-amino-9H-purin-9-yl)-3,9,12,18-tetrahydroxy-2,5,7,11,13,16-hexaoxa-3λ^5,12λ^5-diphosphatricyclo[13.2.1.0^6,10]octadecane-3,12-dione] | 9.1 | 1.9 | 1.7 |
| Cc1cn([C@@H]2O[C@@H]3COP(=O)(O)O[C@@H]4[C@@H](OCP(=O)(O)O[C@@H]2[C@@H]3O)O[C@@H](n2cnc3c(N)ncnc32)[C@@H]4O)c2nc(N)[nH]c(=O)c12 [Compound 42, (1R,6R,8R,9R,10S,15R,17R,18R)-17-{2-amino-5-methyl-4-oxo-3H,4H,7H-pyrrolo[2,3-d]pyrimidin-7-yl}-8-(6-amino-9H-purin-9-yl)-3,9,12,18-tetrahydroxy-2,5,7,11,13,16-hexaoxa-3λ^5,12λ^5-diphosphatricyclo[13.2.1.0^6,10]octadecane-3,12-dione] | 2.1 | 45.4 | 0.1 |
| Nc1nc2c(ncn2[C@@H]2O[C@@H]3OCP(=O)(O)O[C@H]4[C@@H](O)[C@H](n5cnc6c(N)ncnc65)O[C@@H]4COP(=O)(O)O[C@@H]2[C@@H]3O)c(=O)[nH]1 [Compound 43, (1R,6R,8R,9R,10S,15R,17R,18S)-17-(2-amino-6-oxo-6,9-dihydro-1H-purin-9-yl)-8-(6-amino-9H-purin-9-yl)-3,9,12,18-tetrahydroxy-2,4,7,11,14,16-hexaoxa-3λ^5,12λ^5-diphosphatricyclo[13.2.1.0^6,10]octadecane-3,12-dione] | 16.6 | 0.005 | 8 |
| Nc1nc2c(ncn2[C@@H]2O[C@@H]3OCP(=O)(O)O[C@@H]4[C@@H](OCP(=O)(O)O[C@@H]2[C@@H]3O)O[C@@H](n2cnc3c(N)ncnc32)[C@@H]4O)c(=O)[nH]1 [Compound 44, (1R,6R,8R,9R,10S,15R,17R,18S)-17-(2-amino-6-oxo-6,9-dihydro-1H-purin-9-yl)-8-(6-amino-9H-purin-9-yl)-3,9,12,18-tetrahydroxy-2,5,7,11,14,16-hexaoxa-3λ^5,12λ^5-diphosphatricyclo[13.2.1.0^6,10]octadecane-3,12-dione] | 10.3 | 0.33 | 2.6 |
| Nc1nc2c(ncn2[C@@H]2O[C@@H]3OCP(=O)(O)O[C@H]4[C@H](O)[C@H](n5cnc6c(N)ncnc65)O[C@@H]4COP(=O)(O)OC2C3O)c(=O)[nH]1 (stereo partly drawn) [Compound 45, (6R,8R,9S,10S,15R,17R)-17-(2-amino-6-oxo-6,9-dihydro-1H-purin-9-yl)-8-(6-amino-9H-purin-9-yl)-3,9,12,18-tetrahydroxy-2,4,7,11,14,16-hexaoxa-3λ^5,12λ^5-diphosphatricyclo[13.2.1.0^6,10]octadecane-3,12-dione] | 25.3 | 0.01 | 18.7 |
| Nc1nc2c(ncn2[C@@H]2O[C@@H]3OCP(=O)(O)O[C@H]4[C@@H](F)[C@H](n5cnc6c(N)ncnc65)O[C@@H]4COP(=O)(O)O[C@@H]2[C@@H]3O)c(=O)[nH]1 [Compound 46, (1R,6R,8R,9R,10R,15R,17R,18S)-17-(2-amino-6-oxo-6,9-dihydro-1H-purin-9-yl)-8-(6-amino-9H-purin-9-yl)-9-fluoro-3,12,18-trihydroxy-2,4,7,11,14,16-hexaoxa-3λ^5,12λ^5-diphosphatricyclo[13.2.1.0^6,10]octadecane-3,12-dione] | 26.2 | 0.01 | 18.7 |

Reference: patent US11203610B2, “2′3′ cyclic dinucleotides with phosphonate bond activating the sting adaptor protein” (INSTITUTE OF ORGANIC CHEMISTRY AND BIOCHEMISTRY ASCR, V.V.I., priority 2017, dated 2021)
